In BindingDB's records for patent US9670231 (BeiGene, Ltd, 2017):
pIC50: −log10 of the molar value.

Assays:
[1] = target: RAF proto-oncogene serine/threonine-protein kinase [Y340D,Y341D] (Homo sapiens, UniProt P04049, Y340D/Y341D); test: Not found
Source text: Not found

[2] = target: Serine/threonine-protein kinase B-raf [V600E] (Homo sapiens, UniProt P15056, V600E); test: Not found
Serine/threonine-protein kinase B-raf [V600E], sequence (P15056 2-766 V600E limits assumed): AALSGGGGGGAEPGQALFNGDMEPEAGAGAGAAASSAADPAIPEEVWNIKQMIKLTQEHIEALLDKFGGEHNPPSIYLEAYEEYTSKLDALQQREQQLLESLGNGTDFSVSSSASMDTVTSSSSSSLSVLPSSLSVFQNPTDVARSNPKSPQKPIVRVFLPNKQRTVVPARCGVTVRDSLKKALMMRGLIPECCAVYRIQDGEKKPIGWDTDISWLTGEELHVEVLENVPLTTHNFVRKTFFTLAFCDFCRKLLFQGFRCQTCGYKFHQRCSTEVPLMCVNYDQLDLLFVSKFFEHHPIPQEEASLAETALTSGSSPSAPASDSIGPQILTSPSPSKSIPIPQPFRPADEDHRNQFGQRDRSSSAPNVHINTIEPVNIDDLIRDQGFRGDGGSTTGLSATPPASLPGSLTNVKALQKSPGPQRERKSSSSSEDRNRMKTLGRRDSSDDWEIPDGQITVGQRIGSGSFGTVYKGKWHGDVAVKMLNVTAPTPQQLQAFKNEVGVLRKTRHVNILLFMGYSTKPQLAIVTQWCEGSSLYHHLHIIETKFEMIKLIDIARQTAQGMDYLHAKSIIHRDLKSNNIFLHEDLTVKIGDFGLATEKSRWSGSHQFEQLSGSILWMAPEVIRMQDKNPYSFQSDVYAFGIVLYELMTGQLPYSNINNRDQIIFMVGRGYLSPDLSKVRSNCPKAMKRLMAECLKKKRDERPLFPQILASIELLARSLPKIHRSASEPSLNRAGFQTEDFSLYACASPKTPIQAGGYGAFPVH

RAF proto-oncogene serine/threonine-protein kinase [Y340D,Y341D], sequence (P04049 whole entry Y340D/Y341D): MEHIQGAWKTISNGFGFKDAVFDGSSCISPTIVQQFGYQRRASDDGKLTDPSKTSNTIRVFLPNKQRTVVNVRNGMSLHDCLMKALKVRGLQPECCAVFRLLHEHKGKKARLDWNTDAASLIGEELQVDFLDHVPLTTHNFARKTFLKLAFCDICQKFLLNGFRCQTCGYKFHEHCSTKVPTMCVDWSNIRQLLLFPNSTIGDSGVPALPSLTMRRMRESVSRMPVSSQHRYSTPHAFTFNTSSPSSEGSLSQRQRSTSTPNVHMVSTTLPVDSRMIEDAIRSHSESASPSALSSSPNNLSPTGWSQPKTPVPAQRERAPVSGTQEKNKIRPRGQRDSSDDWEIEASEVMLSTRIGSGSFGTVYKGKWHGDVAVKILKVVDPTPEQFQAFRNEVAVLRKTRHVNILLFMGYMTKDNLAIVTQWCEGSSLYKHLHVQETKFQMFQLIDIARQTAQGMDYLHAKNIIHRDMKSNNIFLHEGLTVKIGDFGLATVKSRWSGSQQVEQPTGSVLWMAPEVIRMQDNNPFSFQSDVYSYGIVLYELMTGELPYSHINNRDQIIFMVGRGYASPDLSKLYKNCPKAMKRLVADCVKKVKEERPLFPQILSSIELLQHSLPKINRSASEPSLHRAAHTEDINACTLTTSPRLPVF

pIC50 [1] | pIC50 [2] | Structure (SMILES)
8.60 | 7.85 | CN1CCN(CCOc2ccc(C(=O)N[C@@H]3[C@H]4Oc5ccc(Oc6ccnc7c6CCC(=O)N7)cc5[C@@H]34)cc2C(F)(F)F)CC1 [US9670231, 1.52]
8.68 | 7.96 | CN(C)C1CCN(Cc2ccc(C(=O)N[C@@H]3[C@H]4Oc5ccc(Oc6ccnc7c6CCC(=O)N7)cc5[C@@H]34)cc2C(F)(F)F)CC1 [US9670231, 1.20]
 | 7.96 | CN1CCN(Cc2ccc(C(=O)N[C@@H]3[C@H]4Oc5ccc(Oc6ccnc7c6COC(=O)N7)cc5[C@@H]34)cc2C(F)(F)F)CC1 [US9670231, 2.2]
 | 7.98 | O=C1CCc2c(Oc3ccc4c(c3)[C@H]3[C@H](NC(=O)c5ccc(CN6CCN(CCO)CC6)c(C(F)(F)F)c5)[C@H]3O4)ccnc2N1 [US9670231, 1.17]
 | 7.77 | CN(C)[C@H]1CCN(Cc2ccc(C(=O)N[C@@H]3[C@H]4Oc5ccc(Oc6ccnc7c6CCC(=O)N7)cc5[C@@H]34)cc2C(F)(F)F)C1 [US9670231, 1.9]
8.21 |  | O=C1CCc2c(Oc3ccc4c(c3)[C@H]3[C@H](NC(=O)c5ccc(CN6CCC[C@H](O)C6)c(C(F)(F)F)c5)[C@H]3O4)ccnc2N1 [US9670231, 1.15]
 | 7.85 | CN(C)[C@@H]1CCN(Cc2ccc(C(=O)N[C@@H]3[C@H]4Oc5ccc(Oc6ccnc7c6CCC(=O)N7)cc5[C@@H]34)cc2C(F)(F)F)C1 [US9670231, 1.10]
